Results: patent US20250296922A1, “POLYSUBSTITUTED PYRROLIDINE DERIVATIVE, PREPARATION METHOD THEREFOR AND USE THEREOF” (SHANGHAI WENNAI THERAPEUTICS CO LTD, priority 2023, published 2025)

Molecular target: Nav1.8 sodium channel (Homo sapiens (Human), UniProt Q9Y5Y9)
Assay: NaV1.8 blocking activity, manual patch clamp
Assay type: cell-based
Settings: CHO cell line stably expressing Nav1.8
Protocol: The NaV1.8 blocking activity was determined by using a manual patch clamp technique to detect the effect of the subject on the channel currents of stably overexpressed Nav1.8.
CHO cell line stably expressing the Nav1.8 sodium channel was used for the experiments, gene information: sodium channel, voltage-gated, type 8, alpha (SCN10A), cDNA strictly similar to GenBank accession number: NM 006514.
Cells were cultured in HAM'S/F-12 medium containing 10% foetal bovine serum and 10 μg/mL Blasticidin, 200 μg/mL Hygromycin B, and 100 μg/mL Zeocin at 37° C., 5% CO2. For expansion or maintenance cultures, cells were treated with 0.25%-Trypsin-EDTA, washed and centrifuged, and then inoculated in 6-cm cell culture dishes with 2.5×10^5lls per cell culture dish (final volume: 5 mL).
Prior to the patch clamp detection, cells were separated with 0.25%-Trypsin-EDTA and 6.5×10^3 cells were spread onto coverslips and incubated (final volume: 500 μL) in 24-well plates for 18 hours, then the test was performed.
50 mM CsCl, 10 mM NaCl, 10 mM HEPES, 60 mM CsF, 20 mM EGTA, and pH was adjusted to 7.2 with CsOH. • Instrument information is provided in Table 2 below:
Prior to Nav1.8 channel current testing, a blank control solution (DMSO) was diluted into 10 ml of extracellular fluid as the working solution. Positive controls and subjects were first diluted with different doses of DMSO depending on the final concentration before being diluted as working solution using extracellular fluid. 100 nM TTX was added to each working solution to block the TTX-S current. The working solution was sonicated for 20 min before performing the patch clamp test detection.
Patch clamp manipulation: firstly, the capillary glass tube was drawn into a recording electrode using a microelectrode puller, then the electrode filled with intracellular fluid was loaded into the microelectrode holder, and the microelectrode manipulator was manoeuvred under an inverted microscope to immerse the electrode into the extracellular fluid and record the electrode resistance (Rpip). The electrode was then slowly contacted to the cell surface and negative pressure suction was given to form a GQ2 seal. At this time, fast capacitance compensation was performed and negative pressure was continually applied to suction through the cell membrane to form a whole-cell recording pattern. Finally, slow capacitance compensation was performed and experimental parameters such as series resistance (Rs) were recorded. No leakage compensation was given.
Drug administration was initiated when the Nav1.8 current was stabilized for whole-cell recordings, and the next concentration was detected after each drug concentration had acted for approximately 5 min (or until the current was stable). Cell-lined coverslips were placed in the recording bath under an inverted microscope, and the blank control external solution as well as the working solution of the compound to be tested flowed sequentially from low to high concentrations through the recording bath by using gravitational perfusion and thus acted on the cells, and a peristaltic pump was used to exchange fluids during the recording. The current detected by each cell in the compound-free external fluid served as its own control. Each concentration was repeated independently 2-3 times. All electrophysiological experiments were performed at room temperature.
The voltage stimulation scheme for whole-cell patch-clamp recording of Nav1.8 currents was as follows: when a whole-cell seal was formed, the voltage was clamped at −120 mV. The resting state recording of sodium currents was performed by maintaining the voltage for 5s and then depolarizing it to 0 mV, and then administering a depolarizing pulse (TP1) to 0 m V for 50 ms for detecting the resting state sodium currents. For half-inactivated state recording, the voltage was first stepped at different voltages and maintained for 5s and then a depolarizing pulse was given to 0 mV to detect the Vhalf. […]

Nav1.8 sodium channel, sequence (Q9Y5Y9 whole entry): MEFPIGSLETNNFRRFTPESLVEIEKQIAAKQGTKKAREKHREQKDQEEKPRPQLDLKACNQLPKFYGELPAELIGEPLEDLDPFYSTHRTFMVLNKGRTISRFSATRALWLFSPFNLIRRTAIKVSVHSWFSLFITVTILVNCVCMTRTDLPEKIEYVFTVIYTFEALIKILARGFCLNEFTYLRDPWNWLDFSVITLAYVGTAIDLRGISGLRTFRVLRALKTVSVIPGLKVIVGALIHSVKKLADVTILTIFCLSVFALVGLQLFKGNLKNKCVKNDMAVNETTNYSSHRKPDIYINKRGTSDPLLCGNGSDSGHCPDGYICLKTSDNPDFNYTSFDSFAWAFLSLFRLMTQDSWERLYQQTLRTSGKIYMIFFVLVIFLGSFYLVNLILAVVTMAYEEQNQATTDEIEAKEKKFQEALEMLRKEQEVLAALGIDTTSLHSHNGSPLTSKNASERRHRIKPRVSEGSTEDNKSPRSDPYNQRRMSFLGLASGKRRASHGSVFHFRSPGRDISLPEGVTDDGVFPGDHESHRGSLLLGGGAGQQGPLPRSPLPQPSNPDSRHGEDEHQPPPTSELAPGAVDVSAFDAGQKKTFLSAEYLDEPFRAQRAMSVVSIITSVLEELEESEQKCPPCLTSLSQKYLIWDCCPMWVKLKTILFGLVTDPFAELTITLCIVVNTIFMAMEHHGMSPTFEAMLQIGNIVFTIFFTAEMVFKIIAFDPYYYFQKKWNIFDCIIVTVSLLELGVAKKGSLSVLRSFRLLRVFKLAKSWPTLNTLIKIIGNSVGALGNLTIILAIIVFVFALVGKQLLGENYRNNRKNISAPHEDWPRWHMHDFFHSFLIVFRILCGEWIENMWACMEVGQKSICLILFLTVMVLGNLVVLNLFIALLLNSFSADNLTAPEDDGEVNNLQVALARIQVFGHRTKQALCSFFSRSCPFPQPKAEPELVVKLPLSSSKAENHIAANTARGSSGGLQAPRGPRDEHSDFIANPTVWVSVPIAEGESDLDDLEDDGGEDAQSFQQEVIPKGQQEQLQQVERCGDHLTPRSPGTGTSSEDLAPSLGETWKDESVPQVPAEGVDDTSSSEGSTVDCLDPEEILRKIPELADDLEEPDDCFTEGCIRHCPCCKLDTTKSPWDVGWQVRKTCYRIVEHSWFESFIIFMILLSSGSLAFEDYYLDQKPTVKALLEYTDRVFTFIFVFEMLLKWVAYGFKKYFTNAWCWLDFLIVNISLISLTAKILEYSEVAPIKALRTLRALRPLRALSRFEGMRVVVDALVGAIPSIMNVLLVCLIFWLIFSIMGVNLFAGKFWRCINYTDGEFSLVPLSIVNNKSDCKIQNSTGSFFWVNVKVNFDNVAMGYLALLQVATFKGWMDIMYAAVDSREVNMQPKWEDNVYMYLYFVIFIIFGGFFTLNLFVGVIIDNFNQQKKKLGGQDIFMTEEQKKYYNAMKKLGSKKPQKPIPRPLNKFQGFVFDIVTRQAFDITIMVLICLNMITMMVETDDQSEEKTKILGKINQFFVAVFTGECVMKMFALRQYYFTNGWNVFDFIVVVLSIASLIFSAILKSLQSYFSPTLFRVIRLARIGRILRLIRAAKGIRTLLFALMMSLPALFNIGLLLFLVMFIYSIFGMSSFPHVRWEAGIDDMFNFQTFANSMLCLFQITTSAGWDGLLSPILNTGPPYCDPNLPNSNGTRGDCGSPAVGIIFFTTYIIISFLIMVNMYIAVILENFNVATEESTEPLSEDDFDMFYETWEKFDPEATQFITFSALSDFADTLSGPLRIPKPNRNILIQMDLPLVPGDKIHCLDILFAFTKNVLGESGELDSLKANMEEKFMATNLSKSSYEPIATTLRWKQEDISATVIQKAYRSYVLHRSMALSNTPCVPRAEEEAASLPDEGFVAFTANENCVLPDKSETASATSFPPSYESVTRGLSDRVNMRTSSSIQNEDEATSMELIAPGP

Compound	Blocking rate (%) @3 nM	Blocking rate(%) @10 nM
4-((2R,3S,4S,5R)-3-(3,4-difluoro-2-(methoxy-d3)phenyl)-4,5-dimethyl-1-(2,2,2-trifluoroacetyl)-5-(trifluoromethyl) pyrrolidine-2-carboxamido)pyridinamide [Compound 17]	28.89%	77.24%
COc1c([C@@H]2[C@@H](C(=O)Nc3ccnc(C(N)=O)c3)N[C@](C)(C(F)(F)F)[C@@H]2C)ccc(F)c1F [Compound 2, 4-((2S,3R,4R,5S)-3-(3,4-difluoro-2-methoxyphenyl)-4,5-dimethyl-5-(trifluoromethyl)pyrrolidine-2-carboxamido)pyridine amide]		9.30%
COc1c([C@H]2[C@H](C(=O)Nc3ccnc(C(N)=O)c3)N(C)[C@@](C)(C(F)(F)F)[C@H]2C)ccc(F)c1F [Compound 3, 4-((2R,3S,4S,5R)-3-(3,4-difluoro-2-methoxyphenyl)-1,4,5-trimethyl-5-(trifluoromethyl)pyrrolidine-2-carboxamido)pyridine amide]		84.03%
COc1c([C@@H]2[C@@H](C(=O)Nc3ccnc(C(N)=O)c3)N(C)[C@](C)(C(F)(F)F)[C@@H]2C)ccc(F)c1F [Compound 4, 4-((2S,3R,4R,5S)-3-(3,4-difluoro-2-methoxyphenyl)-1,4,5-trimethyl-5-(trifluoromethyl)pyrrolidine-2-carboxamido)pyridine amide]		6.05%
COc1c([C@H]2[C@H](C(=O)Nc3ccc([C@H](O)CO)nc3)N[C@@](C)(C(F)(F)F)[C@H]2C)ccc(F)c1F [Compound 5, (2R,3S,4S,5R)-3-(3,4-difluoro-2-methoxyphenyl)-aza-(6-((S)-1,2-dihydroxyethyl)pyridin-3-yl)-4,5-dimethyl-5-(trifluoromethyl) pyrrolidine-2-carboxamide]	72.73%	79.03%
COc1c([C@H]2[C@H](C(=O)Nc3ccc([C@@H](O)CO)nc3)N[C@@](C)(C(F)(F)F)[C@H]2C)ccc(F)c1F [Compound 6, (2R,3S,4S,5R)-3-(3,4-difluoro-2-methoxyphenyl)-aza-(6-((R)-1,2-dihydroxyethyl)pyridin-3-yl)-4,5-dimethyl-5-(trifluoromethyl) pyrrolidine-2-carboxamide]	20.06%	45.92%
COc1c([C@H]2[C@H](C(=O)Nc3ccnc(S(N)(=O)=O)c3)N[C@@](C)(C(F)(F)F)[C@H]2C)ccc(F)c1F [Compound 9, (2R,3S,4S,5R)-3-(3,4-difluoro-2-methoxyphenyl)-4,5-dimethyl-aza-(2-aminosulfonylpyridin-4-yl)-5-(trifluoromethyl) pyrrolidine-2-carboxamide]	58.06%	84.91%
COc1c([C@H]2[C@H](C(=O)Nc3ccnc(S(C)(=O)=O)c3)N[C@@](C)(C(F)(F)F)[C@H]2C)ccc(F)c1F [Compound 12, (2R,3S,4S,5R)-3-(3,4-difluoro-2-methoxyphenyl)-4,5-dimethyl-N-(2-(methylsulfonyl)pyridin-4-yl)-5-(trifluoromethyl) pyrrolidine-2-carboxamide]	77.43%	88.65%
C[C@H]1[C@@H](c2ccc(F)c(F)c2OC(F)F)[C@H](C(=O)Nc2ccnc(C(N)=O)c2)N[C@@]1(C)C(F)(F)F [Compound 13, 4-((2R,3S,4S,5R)-3-(2-(difluoromethoxy)-3,4-difluorophenyl)-4,5-dimethyl-5-(trifluoromethyl)pyrrolidine-2-carboxamido)pyridinamide]	75.71%	92.01%
[2H]C([2H])([2H])Oc1c([C@H]2[C@H](C(=O)Nc3ccc(F)c(C(=N)NO)c3)N[C@@](C)(C(F)(F)F)[C@H]2C)ccc(F)c1F [Compound 14, (2R,3S,4S,5R)-3-(3,4-difluoro-2-(methoxy-d3)phenyl)-N-(4-fluoro-3-(N-hydroxycarbamimidoyl)phenyl)-4,5-dimethyl-5-(trifluoromethyl) pyrrolidine-2-carboxamide]	91.40%	99.51%
[2H]C([2H])([2H])Oc1c([C@H]2[C@H](C(=O)Nc3ccnc(C(=N)NOC)c3)N[C@@](C)(C(F)(F)F)[C@H]2C)ccc(F)c1F [Compound 15, (2R,3S,4S,5R)-3-(3,4-difluoro-2-(methoxy-d3)phenyl)-N-(2-(N-methoxycarbamimidoyl)pyridin-4-yl)-4,5-dimethyl-5-(trifluoromethyl) pyrrolidine-2-carboxamide]	35.55%	79.44%
[2H]C([2H])([2H])Oc1c([C@H]2[C@H](C(=O)Nc3ccnc(C(=N)NO)c3)N[C@@](C)(C(F)(F)F)[C@H]2C)ccc(F)c1F [Compound 16, (2R,3S,4S,5R)-3-(3,4-difluoro-2-(methoxy-d3)phenyl)-N-(2-(N-hydroxycarbamimidoyl)pyridin-4-yl)-4,5-dimethyl-5-(trifluoromethyl) pyrrolidine-2-carboxamide]	6.68%	25.19%
[2H]C([2H])([2H])Oc1c([C@H]2[C@H](C(=O)Nc3cc[n+]([O-])c(C(N)=O)c3)N[C@@](C)(C(F)(F)F)[C@H]2C)ccc(F)c1F [Compound 18, 2-carbamoyl-4-((2R,3S,4S,5R)-3-(3,4-difluoro-2-(methoxy-d3)phenyl)-4,5-dimethyl-5-(trifluoromethyl)pyrrolidine-2-carboxamido)pyridine 1-oxide]	40.29%	63.01%
C[C@H]1[C@@H](c2ccc(F)c(F)c2OC(F)F)[C@H](C(=O)Nc2ccnc(C(N)=O)c2)N[C@@]1(C)C(F)(F)F [Compound 19, 4-((2R,3S,4S,5R)-3-(2-(difluoromethoxy)-3,4-difluorophenyl)-4,5-dimethyl-5-(trifluoromethyl)pyrrolidine-2-carboxamido)pyridinamide]	26.22%	55.68%
